Source: the supplement of paper PMC10627819

Legend:
Test in all cases: fitness (endpoint OD595 vs no drug) (fraction); higher = more growth
[1] = tested on: S. aureus Newman
Procedure, shortened: (§1)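 Background-subtracted growth curves were the basis for fitness, taken as the optical density at entry into stationary phase over the robust mean of no-drug control wells. A cap of 1 was applied. The curves came from OD595 readings every 30 min for 14 h at 37 °C, in 384-well plates seeded at OD595 0.01 with 30 µl, or 55 µl for S. pneumoniae.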

[2] = tested on: S. pneumoniae D39V
Procedure, shortened: as §1

[3] = tested on: S. aureus DSM 20231
Procedure, shortened: as §1

[4] = tested on: B. subtilis 168
Procedure, shortened: as §1

Cc1cc(NS(=O)(=O)c2ccc(N)cc2)no1 [Sulfamethoxazol] + CN(N=O)C(=O)N[C@@H](C=O)[C@@H](O)[C@H](O)[C@H](O)CO [Streptozotocin]
fitness
Settings	partner 0.15 µg/mL	partner 0.3 µg/mL	partner 0.6 µg/mL	partner 1.2 µg/mL	partner 2.4 µg/mL	partner 4.8 µg/mL
[1], first compound 1 µg/mL	0.891	0.754	0.605	–	–	–
[1], first compound 2 µg/mL	0.868	0.789	0.587	–	–	–
[1], first compound 4 µg/mL	0.88	0.798	0.62	–	–	–
[2], first compound 1 µg/mL	–	–	–	0.939	0.94	0.935
[2], first compound 2 µg/mL	–	–	–	0.944	0.942	0.953
[2], first compound 4 µg/mL	–	–	–	0.911	0.899	0.917
[3], first compound 1 µg/mL	0.794	0.727	0.632	–	–	–
[3], first compound 2 µg/mL	0.861	0.735	0.689	–	–	–
[3], first compound 4 µg/mL	0.857	0.815	0.689	–	–	–
[4], first compound 1 µg/mL	0.855	0.847	0.927	–	–	–
[4], first compound 2 µg/mL	0.85	0.889	0.889	–	–	–

fitness, one replicate
Settings	partner 0.15 µg/mL	partner 0.3 µg/mL	partner 0.6 µg/mL
[1], first compound 8 µg/mL	0.854	0.804	0.751
[4], first compound 0.5 µg/mL	0.931	0.904	0.943
[4], first compound 4 µg/mL	≥ 1	≥ 1	0.956

O=C(O)[C@H]1/C(=C/CO)O[C@@H]2CC(=O)N21 [Clavulanic acid] + O=C(O[C@@H]1Cc2c(O)cc(O)cc2O[C@@H]1c1cc(O)c(O)c(O)c1)c1cc(O)c(O)c(O)c1 [EGCG]
fitness, [1], one replicate
Settings	first compound 0.03125 µg/mL	first compound 0.0625 µg/mL	first compound 0.125 µg/mL
partner 12.5 µg/mL	0.846	0.892	0.824
partner 25 µg/mL	0.821	0.874	0.812
partner 50 µg/mL	0.75	0.733	0.73

fitness
Settings	partner 6.25 µg/mL	partner 12.5 µg/mL	partner 25 µg/mL	partner 50 µg/mL
[2], first compound 0.5 µg/mL	–	0.958	0.96	0.939
[2], first compound 1 µg/mL	–	0.889	0.931	0.93
[2], first compound 2 µg/mL	–	0.817	0.829	0.816
[4], first compound 1.5 µg/mL	0.884	–	–	–
[4], first compound 3 µg/mL	0.835	–	–	–
[4], first compound 6 µg/mL	0.715	–	0.272	–
